Laboratory results: US20240041977A1, “ANNEXIN A1 N-TERMINAL PEPTIDE FORMULATIONS AND METHODS” (ResoTher Pharma A/S, priority 2020, published 2024)
“And” between values parts separate entries of the source, which are not always exact repeats. Identical values can stand only once. Marks after values point to notes of the source that are not given here. Ends that are not written are not given here.

Experiments:
Type in all cases: physicochemical
[1] = ThT assay lag-time (fibrillation propensity, physical stability)
Description: ThT is widely used to visualize and quantify the presence of misfolded peptide and protein aggregates called amyloids or fibrils. ThT is a fluorescent molecule that binds to inter molecular beta-sheets in peptides and proteins (here AnxA1). […] A weaker fluorescence intensity is indicative of less amyloids or fibrils present with fewer intermolecular beta-sheets where ThT can bind. Some peptides have a tendency to form fibrils and amyloids and the propensity is dependent on the formulation conditions in an unpredictable manor. Fibrillation is a stochastic process and to avoid long analysis times and both false negatives and positive results, shear stress is introduced to the sample by rigorous rotation in microtiter plates while continuously monitoring the fluorescence emission at approximately 486 nm. An increase in the fluorescence is an indication of the formation of amyloids or fibrils and the time it takes for the fluorescence to start increasing is known as the lag-time. A faster (short) lag-time is an indication of higher propensity for the peptide to degrade by formation of fibrils or amyloids. A ThT fluorescence of 50 AU at t=0 is considered noise or background. Lag time is reported as the time it takes for the signal intensity to exceed 50 AU. All samples for the ThT assay were filtered through cellulose acetate filters ([…], Ø=13 mm, rinsed with MilliQ® water prior to filtration). For each sample, 20 μL ThT of a 1 mM solution was added to 1 mL peptide solution. From this sample mixture, 200 μL was transferred into n wells in a 96 well microtiter plate (n=3-6). 96-well NUNC plates Bottom optics and Sealing tape, Thermo Scientific™ Nunc™ Sealing Tapes, was used. Lag-time is reported as an average of n samples. A fluorescence plate reader (CLARIOstar® Plus, BMG Labtech) was used for the experiments with the following setting: Excitation wavelength 450 nm; Dichroic filter 465 nm; Emission wavelength 486 nm; Focal height 3.5 mm; Gain 1000; […]; […]; Number of flashes per well 20; Temperature 25° C.; Shake mode orbital, Frequency of 300 rpm, 200 s, and shake after each cycle. If possible, the average of all ThT data replicates are used for ThT lag-time determination. In case of very stochastic data, worst-case data is used for lag-time evaluation. ThT lag-time was determined using either a 1-step or 2-step sigmoidal curve.

Dissolution time = experiment: Dissolution time
Procedure: The peptide was initially wetted with a small amount of solvent and left for 5 minutes and following added the full amount of solvent. The solution was swirled by hand and observation of final dissolution time noted.
1.6 or 3.2 mg AnxA1 was added to Milli Q® water at around neutral pH containing different salts (NaCl, CaCl2, ZnCl2 or HCl) according to table 2. Dissolution times was observed and the resulting solutions was analyzed using the ThT assay.

[2] = Visual appearance of solution
[3] = Milli Q water around neutral pH, no addition of salt

Lag-time ([1]; AnxA1 4.8 mg/mL, mannitol 5 wt.%, histidine 10 mM, pH 6.6): 42.1 h
Lag-time ([1]; AnxA1 4.8 mg/mL, sorbitol 5 wt.%, histidine 10 mM, pH 6.7): 21.3 h
Lag-time ([1]; AnxA1 4.8 mg/mL, sucrose 10 wt.%, glycylglycine 10 mM, pH 7.9, no increase in fluorescence within 65 hours): > 65* hours
Lag-time ([1]; AnxA1 4.8 mg/mL, sucrose 10 wt.%, histidine 10 mM, pH 6.6): 48.8 h
Avg. lag-time ([1]; AnxA1 5.0 mg/mL, 0.9% NaCl in Milli Q water, pH 7.3): 2.7 h
Lag-time ([1]; AnxA1 5 mg/mL, tonicity 80%, mannitol 3.2 wt.%, sucrose 0.8 wt.%, NaHCO3 10 mM, pH 8.41): <60 h
Lag-time ([1]; AnxA1 5 mg/mL, tonicity 80%, mannitol 3.2 wt.%, sucrose 0.8 wt.%, glycylglycine 10 mM, pH 8.40): <60 h
Lag-time ([1]; AnxA1 5 mg/mL, tonicity 100%, mannitol 4.0 wt.%, sucrose 1.0 wt.%, NaHCO3 10 mM, pH 8.40): <60 h
Lag-time ([1]; AnxA1 5 mg/mL, tonicity 100%, mannitol 4.0 wt.%, sucrose 1.0 wt.%, glycylglycine 10 mM, pH 8.39): <60 h
Lag-time ([1]; AnxA1 5 mg/mL, tonicity 120%, mannitol 4.8 wt.%, sucrose 1.2 wt.%, NaHCO3 10 mM, pH 8.40): <60 h
Lag-time ([1]; AnxA1 5 mg/mL, tonicity 120%, mannitol 4.8 wt.%, sucrose 1.2 wt.%, glycylglycine 10 mM, pH 8.41): <60 h
Lag-time ([1]; AnxA1 5 mg/mL, tonicity 200%, mannitol 8.0 wt.%, sucrose 2.0 wt.%, NaHCO3 10 mM, pH 8.44): <60 h
Lag-time ([1]; AnxA1 5 mg/mL, tonicity 200%, mannitol 8.0 wt.%, sucrose 2.0 wt.%, glycylglycine 10 mM, pH 8.40): <60 h
Avg. lag-time ([1]; AnxA1 6.1 mg/mL in Milli-Q water, pH 7.4): 29.6 h
Avg. lag-time ([1]; AnxA1 6.4 mg/mL, 0.9% NaCl in Milli Q water, pH 7.3): 0 h
Avg. lag-time ([1]; AnxA1 7.6 mg/mL, 0.9% NaCl in Milli Q water, pH 7.3): 0 h
Lag-time ([1]; AnxA1 7.7 mg/mL, sucrose 10 wt.%, glycyl-glycine 50 mM, pH 8.5): 29.5 h
Lag-time ([1]; AnxA1 7.8 mg/mL, mannitol 4 wt.%, sucrose 2.5 wt.%, glycyl-glycine 50 mM, pH 8.5): 31.5 h
Lag-time ([1]; AnxA1 7.9 mg/mL, sucrose 10 wt.%, glycyl-glycine 10 mM, pH 7.5): 23.8 h
Avg. lag-time ([1]; AnxA1 8.0 mg/mL in Milli-Q water, pH 7.4): 11.5 h
Lag-time ([1]; AnxA1 8.0 mg/mL, mannitol 4 wt.%, sucrose 2.5 wt.%, glycyl-glycine 10 mM, pH 7.5): 15.1 h
Lag-time ([1]; AnxA1 8.0 mg/mL, mannitol 4 wt.%, sucrose 2.5 wt.%, glycyl-glycine 10 mM, pH 8.3): >65 h
Lag-time ([1]; AnxA1 8.0 mg/mL, mannitol 4 wt.%, sucrose 2.5 wt.%, glycyl-glycine 50 mM, pH 7.6): 3.3 h
Lag-time ([1]; AnxA1 8.0 mg/mL, mannitol 5 wt.%, glycyl-glycine 50 mM, pH 7.5): 3.1 h
Lag-time ([1]; AnxA1 8.0 mg/mL, mannitol 5 wt.%, glycyl-glycine 50 mM, pH 8.5): 41.7 h
Lag-time ([1]; AnxA1 8.1 mg/mL, mannitol 5 wt.%, glycyl-glycine 10 mM, pH 7.4): 13.7 h
Lag-time ([1]; AnxA1 8.1 mg/mL, sucrose 10 wt.%, glycyl-glycine 10 mM, pH 8.2): >65 h
Lag-time ([1]; AnxA1 8.4 mg/mL, mannitol 5 wt.%, glycyl-glycine 10 mM, pH 8.2): 41 h
Avg. lag-time ([1]; AnxA1 20 mg/mL (estimated from amount weighed, gel-like texture), 0.9% NaCl, pH 8.1 (not considered valid)): 0 h
lag-time ([1]; Example 11 composition at pH 7.5): 35 h and 34.7 h
lag-time [1, 3]: > 50 h
fibrillation in ThT assay ([1]; NaHCO3 or glycylglycine buffer at 20% hypotonicity, and at 20% and 100% hypertonicity): No fibrillation was observed
Lag-time ([1]; all samples containing 10 mM glycyl-glycine, pH 8, independent of AnxA1 concentration (1.5-4.8 mg/mL) and isotonicity modifier): > 65 h
fibrillation propensity ([1]; concentrations ≥5 mg/mL, 0.9% NaCl in Milli Q water, around neutral pH, degradation initiated before the analysis is started): very high fibrillation propensity
fibrillation in ThT assay ([1]; positive control sample in 0.9% saline): Fibrillation is observed
fibrillation propensity ([1]; saline at neutral pH around 7.3): very high fibrillation propensity
dissolution (Dissolution time; 20 mg freeze-dried AnxA1 per mL 0.9% NaCl (154 mM) in Milli Q at neutral pH): not readily dissolved
Dissolution time (Notes) (Dissolution time; AnxA1 1.5 mg/mL, NaCl 0.9%, ZnCl2 0.77 mM, pH N/A, after more than 2 hours): not fully solubilized
Dissolution time (Notes) (Dissolution time; AnxA1 1.6 mg/mL in Milli Q water, no salt, pH 7.5): 5 min
Dissolution time (Notes) (Dissolution time; AnxA1 1.6 mg/mL in Milli Q water, no salt, pH 7.6): 5 min
Dissolution time (Notes) (Dissolution time; AnxA1 1.6 mg/mL, CaCl2 0.77 mM, pH 7.2): 5 min
Dissolution time (Notes) (Dissolution time; AnxA1 1.6 mg/mL, CaCl2 0.77 mM, pH 7.4): 10 min
Dissolution time (Notes) (Dissolution time; AnxA1 1.6 mg/mL, NaCl 0.9%, CaCl2 0.77 mM, pH 7.1): 35 min
Dissolution time (Notes) (Dissolution time; AnxA1 3.2 mg/mL, NaCl 0.9%, pH 7.2): 45 min
dissolution time (Dissolution time; [3]): less than 5 minutes
appearance ([2]; 20 mg AnxA1 per mL 0.9% NaCl, neutral pH, after over night at room temperature on rotation): opaque gel like substance
appearance ([2]; AnxA1 3.3, 1.6 and 0.8 mg/mL in Milli Q water, 0.9% NaCl (154 mM), at pH 6.0): opaque
appearance ([2]; AnxA1 3.3, 1.6 and 0.8 mg/mL in Milli Q water, 0.9% NaCl (154 mM), immediately below pH 6.0): precipitated
Substance: AMVSEFLKQAWFIENEEQEYVQTLKSSKGGPGSAVSPYPTFNPSSDV-NH2 [AnxA1]
